Earlier results as cited in patent publication US6696551B1, “225Ac-HEHA and related compounds, methods of synthesis and methods of use” (The United States of America as represented by the …, priority 1999, dated 2004).

In the case of `O=C(O)CN(CC(=O)O)[C@H](Cc1ccc([N+](=O)[O-])cc1)CN(CC(=O)O)[C@H]1CCCC[C@@H]1N(CC(=O)O)CC(=O)O` (relative stereo) [CHXA″-DTPA, N[(R)-2-amino-3-(4-nitrophenyl)propyl]-trans-(S,S)-cyclohexane-1,2-diamine-N,N,N′,N″,N″-pentaacetic acid], the “maximum tolerated dose (MTD)” value (^225Ac chelate, mice) is given as “approximately 100 kBq” and the mouse mortality (higher doses, within eight days) is given as 100%.
